Measurements published in PubChem BioAssay AID602168 (The Scripps Research Institute Molecular Screening Center, 2012).
Active and inactive are the calls of the source. How the calls were made is not given here.

Target: Nuclear receptor coactivator 1 (Homo sapiens) (UniProt Q15788)
Test: NCOA1 reporter inhibition potency – cell-based, luminescence, counter-screen for SRC3 inhibitor project, dose response (AID 602168)
Details: Cell-based SRC1 luciferase reporter

Chain of Nuclear receptor coactivator 1 (Homo sapiens) (Q15788 whole entry, looked up): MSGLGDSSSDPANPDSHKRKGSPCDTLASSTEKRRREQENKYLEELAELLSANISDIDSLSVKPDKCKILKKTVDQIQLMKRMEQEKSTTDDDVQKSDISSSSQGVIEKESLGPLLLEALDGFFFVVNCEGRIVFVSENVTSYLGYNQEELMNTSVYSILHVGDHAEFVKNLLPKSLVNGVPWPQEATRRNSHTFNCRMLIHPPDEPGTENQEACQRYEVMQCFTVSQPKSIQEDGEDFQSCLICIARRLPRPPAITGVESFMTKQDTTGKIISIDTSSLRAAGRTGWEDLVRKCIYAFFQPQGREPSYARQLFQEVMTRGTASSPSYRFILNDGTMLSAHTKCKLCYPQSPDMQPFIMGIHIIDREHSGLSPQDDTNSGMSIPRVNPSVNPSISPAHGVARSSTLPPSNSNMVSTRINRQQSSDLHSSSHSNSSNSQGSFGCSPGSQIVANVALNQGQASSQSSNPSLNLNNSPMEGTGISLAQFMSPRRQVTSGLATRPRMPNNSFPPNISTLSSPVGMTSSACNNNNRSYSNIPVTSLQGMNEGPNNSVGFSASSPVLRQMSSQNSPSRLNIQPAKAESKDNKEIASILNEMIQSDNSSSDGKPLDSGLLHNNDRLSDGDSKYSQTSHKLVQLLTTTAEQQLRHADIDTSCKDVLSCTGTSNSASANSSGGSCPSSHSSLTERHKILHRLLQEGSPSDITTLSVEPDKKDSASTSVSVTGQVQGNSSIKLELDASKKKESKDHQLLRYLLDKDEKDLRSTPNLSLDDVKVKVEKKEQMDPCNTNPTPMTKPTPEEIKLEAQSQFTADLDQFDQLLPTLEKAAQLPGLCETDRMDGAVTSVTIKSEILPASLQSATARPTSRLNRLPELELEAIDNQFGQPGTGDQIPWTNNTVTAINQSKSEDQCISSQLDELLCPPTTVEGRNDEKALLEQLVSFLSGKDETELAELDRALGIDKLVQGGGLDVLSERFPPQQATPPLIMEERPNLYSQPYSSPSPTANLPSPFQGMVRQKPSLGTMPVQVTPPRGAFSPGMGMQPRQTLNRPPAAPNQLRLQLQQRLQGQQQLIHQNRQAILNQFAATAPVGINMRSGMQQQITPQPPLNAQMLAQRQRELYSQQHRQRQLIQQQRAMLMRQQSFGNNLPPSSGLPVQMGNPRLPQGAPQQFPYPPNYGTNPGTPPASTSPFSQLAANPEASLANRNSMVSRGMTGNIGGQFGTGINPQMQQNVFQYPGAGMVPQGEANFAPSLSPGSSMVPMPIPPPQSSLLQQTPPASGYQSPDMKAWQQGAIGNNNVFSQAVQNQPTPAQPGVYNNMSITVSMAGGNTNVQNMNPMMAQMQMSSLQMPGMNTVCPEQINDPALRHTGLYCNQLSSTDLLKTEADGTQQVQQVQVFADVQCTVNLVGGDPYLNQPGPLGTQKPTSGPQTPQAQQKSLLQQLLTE

SMILES	IC50
CCOc1ccc(CC(=O)Nc2ccc(NC(=O)c3ccco3)cc2)cc1OCC	4.28 µM
O=C(NC1CCCCC1)C(c1cccnc1)N(C(=O)CCl)c1cccc(Cl)c1 (stereo unspecified)	inactive
C(=Cc1cnc2ccccc2n1)c1ccc2c(c1)OCO2	inactive
COc1cccc(NC(=O)CSc2nnc(-c3cc(C)n(-c4ccccc4)c3C)o2)c1	> 35.9 µM (inactive)
Cc1ccc2nc(-c3ccncc3)c(NC3CCCC3)n2c1	inactive
Cc1c(Cl)cccc1NC(=O)Nc1ccccc1C(N)=O	> 35.9 µM (inactive)
Cc1cc(-c2nnc(SCC(=O)Nc3ccccc3C(F)(F)F)o2)c(C)n1-c1ccccc1	> 35.9 µM (inactive)
Clc1ccc(-c2csc3ncnc(NCCN4CCOCC4)c23)cc1	inactive
Oc1ccc(C=NNc2ccccn2)c(O)c1	> 35.9 µM (inactive)
O=c1[nH]c2ccccc2n1C1CCN(C(c2cccc3ccccc23)c2nnnn2-c2ccc3c(c2)OCCO3)CC1 (stereo unspecified)	inactive
COc1cc(C(=O)OCC(=O)Nc2sccc2C(N)=O)cc(OC)c1OC	> 35.9 µM (inactive)
O=C(CCl)N1N=C(c2ccco2)CC1c1ccco1 (stereo unspecified)	> 35.9 µM (inactive)
COc1ccc(C(C(=O)NC2CCCCC2)N(C(=O)CCl)c2ccc(OC)cc2)cc1 (stereo unspecified)	inactive
COC(CN(C(=O)CCl)C(C(=O)NC1CCCCC1)c1ccccc1C)OC (stereo unspecified)	inactive
COc1ccc(C(C(=O)NC2CCCCC2)N(C(=O)CCl)c2ccc(Cl)cc2)cc1 (stereo unspecified)	inactive
C(=N\Nc1ccc2ccccc2n1)/c1ccc2c(c1)OCCO2	inactive
CCOc1ccc(Nc2cc(C)nc(-n3nc(C)cc3C)n2)cc1	> 35.9 µM (inactive)
CNc1ncnc(Sc2nc(N)nc3nc[nH]c23)c1[N+](=O)[O-]	> 35.9 µM (inactive)
COc1cc(C(=O)N/N=C(\c2ccccc2)c2ccccn2)cc(OC)c1OC	> 12 µM (inactive)
O=C(CCl)N(c1ccccc1)C1CCS(=O)(=O)C1 (stereo unspecified)	inactive
CO[C@@]12[C@@H]3N[C@@H]3CN1C1=C(C(=O)C(N)=C(C)C1=O)[C@@H]2COC(N)=O	> 35.8 µM (inactive)

SMILES	IC50
c1csc(Cc2nn3c(-c4ccncc4)nnc3s2)c1	inactive
CC(=O)NC(c1cc(Cl)c2cccnc2c1O)C(C)C (stereo unspecified)	7.94 µM
COc1cccc(CNc2ncnc3ccc(-c4c(C)noc4C)cc23)c1	> 35.9 µM (inactive)
COc1ccc(/C=C2\CC/C(=C\c3ccc(OC)c(OC)c3)C2=O)cc1OC	> 35.9 µM (inactive)
O=C(Nc1nc2ccccc2s1)C1c2ccccc2Oc2ccccc21	inactive
CN[C@H]1CCc2cc(OC)c(OC)c(OC)c2-c2ccc(OC)c(=O)cc21	> 35.9 µM (inactive)
Cc1cccc(CN2CCN(C(=O)CCl)CC2)c1	> 35.9 µM (inactive)
Cc1ccc2occ(/C=N/NC(=O)c3ccccc3Br)c(=O)c2c1	> 35.9 µM (inactive)
COc1cc2c(cc1OC)C(C)N(C(=O)c1cccc([N+](=O)[O-])c1)CC2 (stereo unspecified)	inactive
O=C(NCCCn1ccnc1)c1ccc(N2CCCCCC2)c([N+](=O)[O-])c1	inactive
COc1ccc(-c2nsc3c(N4CCCCC4)ncnc23)cc1	> 35.9 µM (inactive)
NC(=O)c1sc2nc3c(c(-c4ccco4)c2c1N)CCC3	3.29 µM
CC1CCN(C2=NC(=O)/C(=C/c3ccccc3F)S2)CC1	> 35.9 µM (inactive)
CCCC(=O)NC(c1ccc(Cl)cc1)c1ccc2cccnc2c1O (stereo unspecified)	8.71 µM
O=C(Nc1ccccc1Oc1ccccc1)c1cc([N+](=O)[O-])ccc1Cl	inactive
CC(=O)/C(N=Nc1ccc2c(c1)OCCO2)=C(\C)O	> 35.9 µM (inactive)
Cc1ccc2occ(/C=N/NC(=O)[C@@H](N)Cc3ccccc3)c(=O)c2c1	inactive
OCCN1CCN(C(=S)c2ccc(-c3ccccc3)cc2)CC1	3.67 µM
O=C(c1ccncc1)N(Cc1cc2ccccc2[nH]c1=O)C1CCCCC1	7.48 µM
COc1ccccc1N(C(=O)CCl)c1cn(C(C)=O)c2ccccc12	> 35.9 µM (inactive)
